Patent publication US7927622B1, “Methods of transnasal transport/immunization with highly adaptable carriers” (priority 1999, dated 2011)
Non-standard residues stand in square brackets, D forms with d. Residues, ends and D or L forms follow the SMILES beside them. dTrp(2-Me) = Cc1[nH]c2ccccc2c1C[C@@H](N)C(=O)O

Experiments:
[1] = in vivo, cited from earlier work
[2] = in vivo; cited from earlier work
[3] = in vivo; cited from earlier work; remark: listed apart in the source
[4] = in vivo; cited from earlier work; remark: listed apart in the source
GH response = conditions: in vivo, cited from earlier work
[5] = in vivo; cited from earlier work; remark: listed apart in the source
[6] = human, in vivo, cited from earlier work
[7] = cited from earlier work
[8] = in vivo; cited from earlier work; remark: listed apart in the source
A-receptor subtype = A-receptor subtype (Canis lupus familiaris, UniProt Q5D0K2); conditions: dog, in vivo; cited from earlier work
A-receptor subtype, sequence (Q5D0K2 whole entry): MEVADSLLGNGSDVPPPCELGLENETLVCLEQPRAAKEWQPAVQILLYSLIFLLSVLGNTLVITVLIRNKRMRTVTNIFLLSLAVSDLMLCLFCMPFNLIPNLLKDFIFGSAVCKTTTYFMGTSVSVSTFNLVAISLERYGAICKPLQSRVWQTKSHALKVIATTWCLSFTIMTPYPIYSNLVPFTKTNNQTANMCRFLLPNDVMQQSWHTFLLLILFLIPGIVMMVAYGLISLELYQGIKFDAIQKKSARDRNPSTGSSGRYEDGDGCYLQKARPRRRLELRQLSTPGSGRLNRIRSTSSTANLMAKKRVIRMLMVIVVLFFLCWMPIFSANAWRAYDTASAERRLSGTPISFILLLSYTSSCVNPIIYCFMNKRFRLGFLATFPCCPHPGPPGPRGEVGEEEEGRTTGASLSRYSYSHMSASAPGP

[9] = human, in vivo; cited from earlier work
[10] = rat, in vivo, sc; cited from earlier work
[11] = in vivo; cited from earlier work; remark: listed apart in the source
anti-TT antibodies = tested on: anti-TT antibodies; design: species or system mice; conditions: mouse, in vivo
[12] = stomach and GI tract, cited from earlier work
[13] = cited from earlier work; remark: listed apart in the source
[14] = cited from earlier work; remark: listed apart in the source
[15] = with polyoxyethylene 9-lauryl ether (Laureth-9)

Molecule: NC(=O)CC[C@@H]1NC(=O)[C@H](Cc2ccccc2)NC(=O)[C@H](Cc2ccc(O)cc2)NC(=O)[C@@H](N)CSSC[C@@H](C(=O)N2CCC[C@H]2C(=O)N[C@@H](CCCN=C(N)N)C(=O)NCC(N)=O)NC(=O)[C@H](CC(N)=O)NC1=O [AVP]
- plasma vasopressin increase after i.v. relative to the other route ([1]; iv): exceeding 2000 fold
- P3 component of the ERP [1]: substantially increased
- memory performance [2]: enhanced memory performance

Molecule: NC(=O)CC[C@@H]1NC(=O)[C@H](Cc2ccccc2)NC(=O)[C@H](Cc2ccc(O)cc2)NC(=O)CCSSC[C@@H](C(=O)N2CCC[C@H]2C(=O)N[C@H](CCCN=C(N)N)C(=O)NCC(N)=O)NC(=O)[C@H](CC(N)=O)NC1=O [DDAVP]
- pain perception [3]: no general effect

Molecule: CCNC(=O)[C@@H]1CCCN1C(=O)[C@H](CCCNC(=N)N)NC(=O)[C@H](CC(C)C)NC(=O)[C@@H](COC(C)(C)C)NC(=O)[C@H](Cc1ccc(O)cc1)NC(=O)[C@H](CO)NC(=O)[C@H](Cc1c[nH]c2ccccc12)NC(=O)[C@H](Cc1cnc[nH]1)NC(=O)[C@@H]1CCC(=O)N1 [buserelin]
- AFS mean pelvic score after treatment (from 24) [4]: 7
- decrease of the size of the fibroids [4]: 69%

Molecule: Cc1[nH]c2ccccc2c1C[C@@H](NC(=O)[C@@H](N)Cc1cnc[nH]1)C(=O)N[C@@H](C)C(=O)N[C@@H](Cc1c[nH]c2ccccc12)C(=O)N[C@H](Cc1ccccc1)C(=O)N[C@@H](CCCCN)C(N)=O [hexarelin] (H-H[dTrp(2-Me)]AW[dF]K-NH2)
- IGF-I and IGFBP-3 levels (GH response; po): slightly but significantly increased
- GH response (GH response): not significantly higher than that induced by an injection of 1 μg GHRH/kg
- IGF-I (GH response): did not significantly modify
- IGFBP-3 levels (GH response): increased

Molecule: NC(=O)CC[C@@H]1NC(=O)[C@H](Cc2ccccc2)NC(=O)[C@H](Cc2ccc(O)cc2)NC(=O)[C@@H](N)CSSC[C@@H](C(=O)N2CCC[C@H]2C(=O)N[C@@H](CCCN=C(N)N)C(=O)NCC(N)=O)NC(=O)[C@H](CC(N)=O)NC1=O [vasopressin]
- nocturnal slow-wave sleep [5]: enhance nocturnal slow-wave sleep

Molecule: CCK-8
- auditory event related potential (AERP) ([6]; iv): shown to affect the auditory event related potential (AERP)
- plasma CCK-8 concentrations vs 0.25 μg i.v. [6]: comparable
- plasma CCK-8 concentrations vs 2.5 μg i.v. [6]: substantially lower

Molecule: GH: growth hormone protein
- serum GH peak value ([7]; i.v. 0.015 IU/kg): 128 µg/L
- serum GH peak level ([7]; s.c. 0.10 IU/kg): around 14 μg/L
- serum IGF-I levels ([7]; s.c. administration only): increased significantly
- bioavailability ([7]; s.c. injection): 50%

Molecule: GHRP-2
- response to intranasal GHRP-2 [8]: significant, but not quantitated, response

Molecule: Hpa(SO3H)-Nle-Gly-Trp-Nle-MeAsp-Phe-NH2
- feeding (A-receptor subtype): inhibited feeding

Molecule: Salmon calcitonin
- decrease in serum 1,25-dihydroxyvitamin D [9]: 14%
- inhibition of the increase in fasting 2 h urinary hydroxyproline/creatinine ratio (OHPr/Cr) [9]: 40%
- lowering of the increase in calcium/creatinine ratio (Ca/Cr) [9]: 80%
- pain scores (visual analog scale) [9]: did not influence the pain scores
- tolerability [9]: well tolerated
- effectiveness of the invasive method relative to nasal [10]: approximately 2 times
- osteopenic changes [10]: prevented the osteopenic changes

Molecule: desglycinamide-[Arg8]vasopressin [DGAVP]
- learning concrete words [11]: no positive effect
- reaction time for scanning of digits (Sternberg paradigm) [11]: reduced the reaction time
- short-term memory for abstract words [11]: improved short-term memory for abstract words in males but not in females

Molecule: monophosphoryl Lipid A [LA]
- dependence of immune response on LA (anti-TT antibodies): no strong dependence was found
- dose dependence of TT-specific increase in serum absorbance (anti-TT antibodies): reverting this trend
- effect of LA with purified TT (anti-TT antibodies): profited from the presence of LA

B1: OVA: ovalbumin (protein, UniProt P01012 2-386, looked up)
Ovalbumin: GSIGAASMEFCFDVFKELKVHHANENIFYCPIAIMSALAMVYLGAKDSTRTQINKVVRFDKLPGFGDSIEAQCGTSVNVHSSLRDILNQITKPNDVYSFSLASRLYAEERYPILPEYLQCVKELYRGGLEPINFQTAADQARELINSWVESQTNGIIRNVLQPSSVDSQTAMVLVNAIVFKGLWEKAFKDEDTQAMPFRVTEQESKPVQMMYQIGLFRVASMASEKMKILELPFASGTMSMLVLLPDEVSGLEQLESIINFEKLTEWTSSNVMEERKIKVYLPRMKMEEKYNLTSVLMAMGITDVFSSSANLSGISSAESLKISQAVHAAHAEINEAGREVVGSAEAGVDAASVSEEFRADHPFLFCIKHIATNAVLFFGRCVSP
- absorption into the blood circulation, of applied dose ([12]; first printed range): 0.007-0.008%
- absorption into the lymph circulation, of applied dose ([12]; second printed range): 0.0007-0.002%

B2: rhG-CSF: recombinant human granulocyte colony-stimulating factor, MW=19600 (protein, UniProt P09919 31-207, looked up)
Granulocyte …: TPLGPASSLPQSFLLKCLEQVRKIQGDGAALQEKLVSECATYKLCHPEELVLLGHSLGIPWAPLSSCPSQALQLAGCLSQLHSGLFLYQGLLQALEGISPELGPTLDTLQLDVADFATTIWQQMEELGMAPALQPTQGAMPAFASAFQRRAGGVLVASHLQSFLEVSYRVLRHLAQP
- availability from leukocyte stimulation counts ([13]; nasal, t=48 h): 5-10%
- relative bioavailability compared to s.c. injection (plasma AUC) ([13]; rat, in vivo): approximately 2%
- increase of pharmacological availability [13, 15]: 3 times
- increase of relative bioavailability [13, 15]: 23 times
- change of availability ([13]; with sodium glycocholate): no increase in availability
- total leukocyte numbers in peripheral blood ([14]; nasal, pH 4, with or without dimethyl-β-cyclodextrin): increased
- absorption with excipients ([14]; with dimethyl-β-cyclodextrin): improved the absorption of rhG-CSF appreciably
